Results taken from patent publication US20240325433A1, “MOLECULAR ASSOCIATION OF BILE ACID OR BILE SALT AND PHARMACEUTICAL COMPOSITION COMPRISING SAME FOR LOCALLY REDUCING FAT” (SCAI THERAPEUTICS CO., LTD., priority 2021, published 2024).

Legend:
3T3-L1 preadipocytes = assay: Preadipocyte cytotoxicity (cell counting kit-8); type: cell-based; conditions: treated 4 hours
Method: 3T3-L1 preadipocytes were inoculated into a 96 well plate at 5×10^3 per well, grown in medium (high glucose DMEM, 10% bovine calf serum, 1% penicillin/streptomycin) for 16 hours. The drug was prepared to contain 0.04% and 0.08%, respectively, and then treated for 4 hours. After adding 10 μl of Dojingo CK04-11 cell counting kit-8 to each well according to the manual, reacting for 2 hours, the absorbance at 450 nm was measured with a spectrophotometer to compare preadipocyte cytotoxicity.

[1] = SD rat skin penetration test: DCA distribution in subcutaneous tissue, skin and plasma; set-up: species or system SD rats; conditions: in vivo, sc
From the text: The interscapular region (back of the neck near the ear) of 10-week-old SD rats (280-350 g) with sufficient subcutaneous adipose tissue was shaved and anesthetized.

[2] = test system: dermis white adipose tissue; assay: SD rat skin penetration test: histological analysis (H&E, Masson's trichome staining); type: in vivo, SD rats; conditions: 1%, 500 μL subcutaneous injection
From the text: The interscapular region (back of the neck near the ear) of 10-week-old SD rats (280-350 g) with sufficient subcutaneous adipose tissue was shaved and anesthetized. […].
Then, tissues (skin, subcutaneous tissue) of the interscapular region were collected, fixed, and subjected to H&E staining and Masson's trichome staining. Tissue changes were investigated through microscopic observation.

[3] = cited from earlier work

C[C@H](CCC(=O)O)[C@H]1CC[C@H]2[C@@H]3CC[C@@H]4C[C@H](O)CC[C@]4(C)[C@H]3C[C@H](O)[C@]12C [deoxycholic acid]
preadipocyte cytotoxicity (comparison between materials) (3T3-L1 preadipocytes; 0.04%): the same
survival rate of preadipocytes (3T3-L1 preadipocytes; 0.08%, absorbance 450 nm): 24.6%
amount of DCA in subcutaneous tissue [1]: gradually decreased
H&E staining: tissue change [2]: severe tissue damage was observed
Masson's trichome staining: tissue change [2]: hematoma and edema occurred in the tissue
solubility in water [3]: 0.024%
